Measured values taken from patent publication US8618137B2 (priority 2008, dated 2013).
Read-outs that look alike come from different tables or passages of the source. Marks after values point to notes of the source that are not given here.

Columns and labels:
Type in all cases: in vivo
[1] = test system: Phytophthora infestans (the causal agent of tomato late blight); conditions: sprayed the day before inoculation, 100 = 100% disease control, 0 = no control
[2] = test system: Phytophthora infestans (the causal agent of tomato late blight); conditions: sprayed 17 h after inoculation, 100 = 100% disease control, 0 = no control
[3] = test system: Plasmopara viticola (the causal agent of grape downy mildew); experiment: Test A: grape downy mildew, grape seedlings inoculated then sprayed with test suspension, visual disease rating; conditions: 100 = 100% disease control, 0 = no control relative to controls
Text: General protocol for preparing test suspensions for Tests A-B2: The test compounds were first dissolved in acetone in an amount equal to 3% of the final volume and then suspended at the desired concentration (in ppm) in acetone and purified water (50/50 mix by volume) containing 250 ppm of the surfactant Trem® 014 (polyhydric alcohol esters). The resulting test suspensions were then used in Tests A-B2. Spraying a 200 ppm test suspension to the point of run-off on the test plants was the equivalent of a rate of 800 g/ha.
Grape seedlings were inoculated with a spore suspension of Plasmopara viticola (the causal agent of grape downy mildew) and incubated in a saturated atmosphere at 20° C. for 24 h. After a short drying period, the grape seedlings were sprayed with the test suspension to the point of run-off, then moved to a growth chamber at 20° C. for 5 days, and then back into a saturated atmosphere at 20° C. for 24 h. Upon removal, visual disease ratings were made.
Results for Tests A-B2 are given in Table A. In the Table, a rating of 100 indicates 100% disease control and a rating of 0 indicates no disease control (relative to the controls). All results are for 10 ppm except where followed by an “*” which indicates 40 ppm and “**” which indicates 200 ppm.

How did the “Test B1 rating (disease control)” value ([1]; test suspension 10 ppm) turn out when `CSC(=NOCC(=O)N1CCC(c2nc(C3=NOC(c4c(F)cccc4F)C3)cs2)CC1)C(=O)N(C)C` (racemic) [compound 11] was run?
The value was 26%.

And the “Test B2 rating (disease control)” value ([2]; test suspension 10 ppm)?
The value was 0%.

What about the “Test A rating (disease control)” value ([3]; test suspension 10 ppm) of the same molecule?
The value was 0%.

`CC(C)=NOC(C(=O)N1CCC(c2nc(C3=NOC(c4c(F)cccc4F)C3)cs2)CC1)c1ccccc1` (mixture of isomers) [compound 32] was tested. Which “Test B1 rating (disease control)” value ([1]; test suspension 40 ppm (*)) did it give?
The value was 100* %.

And the “Test B2 rating (disease control)” value ([2]; test suspension 40 ppm (*))?
The value was 92* %.

And the “Test A rating (disease control)” value ([3]; test suspension 40 ppm (*))?
The value was 94* %.

Which “Test B1 rating (disease control)” value ([1]; test suspension 40 ppm (*)) does the source give for `CC(C)CC=NOCC(=O)N1CCC(c2nc(C3=NOC(c4c(F)cccc4F)C3)cs2)CC1` (racemic) [compound 28] here?
Its value is 95* %.

What about the “Test B2 rating (disease control)” value ([2]; test suspension 40 ppm (*)) of the same molecule?
Its value is 68* %.

What about the “Test A rating (disease control)” value ([3]; test suspension 40 ppm (*)) of the same molecule?
Its value is 98* %.

For `CC(=NOCC(=O)N1CCC(c2nc(C3=NOC(n4c(=O)n(C)c5ccccc54)C3)cs2)CC1)C(F)(F)F` (stereo not drawn) [compound 49], which “Test B1 rating (disease control)” value ([1]; test suspension 10 ppm) is on record?
Its value is 100%.

What about the “Test B2 rating (disease control)” value ([2]; test suspension 10 ppm) of the same molecule?
Its value is 99%.

What about the “Test A rating (disease control)” value ([3]; test suspension 10 ppm) of the same molecule?
Its value is 100%.

With `CC(=NOCC(=O)N1CCC(c2nc(C3=NOC4(C3)c3ccccc3C(=O)N4C)cs2)CC1)C(F)(F)F` (stereo not drawn) [compound 50] as the molecule, how does the “Test B1 rating (disease control)” value ([1]; test suspension 10 ppm) read?
The value was 100%.

And the “Test B2 rating (disease control)” value ([2]; test suspension 10 ppm)?
Its value is 99%.

What about the “Test A rating (disease control)” value ([3]; test suspension 10 ppm) of the same molecule?
The value was 100%.

How did the “Test B1 rating (disease control)” value ([1]; test suspension 40 ppm (*)) turn out when `CCC=NOCC(=O)N1CCC(c2nc(C3=NOC(c4c(F)cccc4F)C3)cs2)CC1` (racemic) [compound 30] was run?
The value was 100* %.

What about the “Test B2 rating (disease control)” value ([2]; test suspension 40 ppm (*)) of the same molecule?
The value was 99* %.

And the “Test A rating (disease control)” value ([3]; test suspension 40 ppm (*))?
The value was 100* %.

`N#Cc1ccccc1C1CC(c2csc(C3CCN(C(=O)CON=CC(F)(F)F)CC3)n2)=NO1` (racemic) [compound 20] was tested. Which “Test B1 rating (disease control)” value ([1]; test suspension 10 ppm) did it give?
The value was 100%.

What about the “Test B2 rating (disease control)” value ([2]; test suspension 10 ppm) of the same molecule?
The value was 99%.

What about the “Test A rating (disease control)” value ([3]; test suspension 10 ppm) of the same molecule?
The value was 100%.

What does the source list for `CSC(C)=NOCC(=O)N1CCC(c2nc(C3=NOC(c4c(F)cccc4F)C3)cs2)CC1` (racemic) [compound 12]?
Test B1 rating (disease control) ([1]; test suspension 10 ppm): 47%; Test B2 rating (disease control) ([2]; test suspension 10 ppm): 0%; Test A rating (disease control) ([3]; test suspension 10 ppm): 17%

With `CC(CC(F)(F)F)=NOCC(=O)N1CCC(c2nc(C3=NOC(c4c(F)cccc4F)C3)cs2)CC1` (racemic) [compound 26] as the molecule, how does the “Test B1 rating (disease control)” value ([1]; test suspension 10 ppm) read?
Its value is 100%.

And the “Test B2 rating (disease control)” value ([2]; test suspension 10 ppm)?
The value was 99%.

And the “Test A rating (disease control)” value ([3]; test suspension 10 ppm)?
The value was 100%.

What does the source list for `CCC(=NOCC(=O)N1CCC(c2nc(C3=NOC(c4c(F)cccc4F)C3)cs2)CC1)C(F)(F)F` (racemic) [compound 23]?
Test B1 rating (disease control) ([1]; test suspension 10 ppm): 99%; Test B2 rating (disease control) ([2]; test suspension 10 ppm): 83%; Test A rating (disease control) ([3]; test suspension 10 ppm): 98%

With `CCC(ON=C(C)C)C(=O)N1CCC(c2nc(C3=NOC(c4c(F)cccc4F)C3)cs2)CC1` (mixture of isomers) [compound 39] as the molecule, how does the “Test B1 rating (disease control)” value ([1]; test suspension 40 ppm (*)) read?
The value was 100* %.

And the “Test B2 rating (disease control)” value ([2]; test suspension 40 ppm (*))?
The value was 99* %.

And the “Test A rating (disease control)” value ([3]; test suspension 40 ppm (*))?
Its value is 100* %.

With `CC=NOCC(=O)N1CCC(c2nc(C3=NOC(c4c(F)cccc4F)C3)cs2)CC1` (racemic) [compound 22] as the molecule, how does the “Test B1 rating (disease control)” value ([1]; test suspension 10 ppm) read?
The value was 100%.

And the “Test B2 rating (disease control)” value ([2]; test suspension 10 ppm)?
The value was 99%.

What about the “Test A rating (disease control)” value ([3]; test suspension 10 ppm) of the same molecule?
The value was 100%.

With `CCC(C)=NOCC(=O)N1CCC(c2nc(C3=NOC(c4c(F)cccc4F)C3)cs2)CC1` (racemic) [compound 16] as the molecule, how does the “Test B1 rating (disease control)” value ([1]; test suspension 10 ppm) read?
The value was 100%.

And the “Test B2 rating (disease control)” value ([2]; test suspension 10 ppm)?
Its value is 99%.

And the “Test A rating (disease control)” value ([3]; test suspension 10 ppm)?
The value was 100%.
